# Source: patent US20220347323A1, “Positron Emission Tomography Guided Delivery of Mitochondral Complex I Inhibitors” (priority 2019, published 2022)
# Entries after “also recorded” stand apart in the source; their conditions may differ.
# Legend:
# A549 and RH2 cells = assay: Cell viability of human ADC (A549) and SCC (RH2) cell lines; format: cell-based; conditions: A549 vs RH2, 48 hr, low doses
# Description: (§1) Experiments were repeated twice.
# Kras/Lkb1 lung tumors [1] = assay: Ki67 staining of TTF1+ and CK5+ Kras/Lkb1 tumors after treatment; format: in vivo, mouse; conditions: 15 mg/kg/day, 12 days
# Kras/Lkb1 lung tumors [2] = assay: Treatment of Kras/Lkb1 mice, tumor burden; format: in vivo, mouse
# [3] = system: mouse adenocarcinoma and squamous cell carcinoma cell lines; assay: Cell viability of mouse adenocarcinoma and squamous cell carcinoma cell lines; format: cell-based; conditions: 48 hr, low doses
# Description: as §1
# A549 cells [4] = assay: Respirometry (Seahorse OCR), A549; format: cell-based, human; conditions: A549, 1 mM, 45 min
# Method: Experiments were conducted on a Seahorse XF96 Extracellular Flux Analyzer (Agilent Technologies) in order to measure oxygen consumption rate (OCR) and extracellular acidification rate (ECAR). […] On the day of the experiment, assay medium (Seahorse XF Base Medium supplemented with 2 mM L-glutamine, 1mM Pyruvate and 10 mM glucose) was freshly prepared. The cells were washed twice with assay medium and brought to a final volume of 175 μL per well. The XF96 plate was placed in a 37° C. incubator without CO2 for 30 minutes prior to loading the plate into the instrument. Injection of compounds during the assay included: the mitochondrial ATP Synthase inhibitor oligomycin (final concentration of 2 μM); the chemical uncoupler, FCCP (final concentration of 1 μM); and the Complex I inhibitors rotenone (final concentrations 2 μM) and phenformin (final concentration 1 mM) and Complex III inhibitor antimycin A (final concentrations of 2 μM). […] Activity of complex I was measured in permeabilized cells using XF PMP assay where complex I dependent OCR was measured by determining OCR in the presence of pyruvate and malate (as substrates for complex I) before and after addition of rotenone (complex I inhibitor).
# A549 cells [5] = assay: Mitochondrial membrane potential (ΔΨ) by TMRE flow cytometry, A549; format: cell-based, human; conditions: A549, short-term treatment 3 hr
# Method: Experiments were conducted by analyzing TMRE fluorescence using flow cytometry. […] Cells were resuspended in 0.5 ml DMEM with 5% FBS containing different concentrations of phenformin or oligomycin or FCCP as indicated in figure legends. […] Cells were washed twice in phenol red free DMEM and cellular fluorescence was acquired with a BD LSRII analyzer at UCLA Flow Cytometry Core. Data was analyzed with Flowing Software.
# Kras/Lkb1 lung tumors [6] = assay: 18FBnTP PET of lung tumors in Kras/Lkb1 GEMMS before and after treatment; format: in vivo, mouse; conditions: 5 days, vs vehicle
# Description: We performed studies with the genetically engineered mouse model of lung cancer using Kras-Lox-Stop-Lox-G12D; Lkb1 Lox/Lox; Rosa26-Lox-Stop-Lox-Luc mice (KL) as described previously [Ref. 33]. Briefly, lung tumors were induced by intranasal administration of 5×10^5 transduction units of Lenti-PGK-Cre (Cat. #FCT071, Kerafast,) as previously described [Ref. 9, 33]. Lentiviral delivery of Cre recombinase to KL mice leads to near 100% development of lung adenocarcinomas [Ref. 36]. KL mice that were inhaled with LentiCre were used in studies with Phenformin treatment. For studies where mice were imaged with both ^18FBnTP and ^18F-FDG probes, KL mice were inhaled with Adenoviral Cre, which leads to development of both ADC and SCC tumors. For all treatments, KL mice were imaged with ^18FBnTP and sorted into two groups based on tumor maximum percent injected dose per gram (%ID/g) values, so that two groups would have similar maximum %ID/g values. Treatment was initiated on the same day or on the following day after ^18FBnTP imaging. Mice were treated with 125 mg/kg/day phenformin for 5 days or 15 mg/kg/day IACS-010759 for 12 days. The drugs were delivered by oral gavage. All experimental procedures that were performed on mice were approved by the UCLA Animal Research Committee (ARC). Both male and female mice were used in all experiments and no preference in mouse gender was given for any of the studies.
# In order to reduce variability between mice imaged with ^18FBnTP, maximum percent injected dose per gram (%ID/g) for each tumor was normalized to maximum %ID/g of heart as indicated in the figures. For waterfall plots in FIG. 2m and FIGS. 8e-8f, we calculated % change in the uptake of the ^18FBnTP probe post-treatment relative to pre-treatment using maximum %ID/g of the tumor that was normalized to maximum %ID/g of the heart for each mouse.
# A549 cells [7] = assay: In vitro 18FBnTP uptake assay, A549; format: cell-based, human; conditions: A549, 1 mM, 3 hr
# Kras/Lkb1 lung tumors [8] = assay: Cleaved caspase 3 and Ki67 staining of Kras/Lkb1 tumors; format: in vivo, mouse; conditions: short-term 5 day treatment
# Method: After the fixation step in 10% neutral buffered formalin overnight, lungs were transferred to 70% ethanol and further processing and embedding was done by the TPCL at UCLA. The following antibodies were used: anti-CK5 (EP1601Y) (abcam, ab52635 1:100), anti-TTF1 (8G7G3/1) (Dako, 1:1000), anti-Ki67 (SP6) (Thermo-Scientific, RM-9106-SO 1:200), anti-Glut1 (alpha-diagnostic, GT11-A, 1:400). Slides were scanned onto a ScanScope AT (Aperio Technologies Inc.). Digital slides were analyzed with Definiens and QuPath software.
# [9] = Phenformin quantification in lung tumors by LC/MS; format: in vivo, mouse; conditions: 100-200 mg/kg oral gavage, 5 days, vs vehicle
# Method: Tumors were homogenized with a Tissue Master (Omni international) in 1 ml chilled 80% Methanol. Tumor suspensions were spun down at 4° C. for 5 min at 17,000g, and the top layer taken as extracted metabolites. The volume equivalent of 1 mg of tumor was transferred into glass vials and the samples were dried with a EZ2-Elite lyophilizer (Genevac). Dried metabolites were re-suspended in 100 μl of 50%:50% acetonitrile (ACN):dH20 solution; 10 μl of these suspensions were injected per analysis. Samples were run on a Vanquish (Thermo Scientific) UHPLC system with mobile phase A (5 mM NH4AcO, pH 9.9) and mobile phase B (ACN). […] The UHPLC was coupled to a Q-Exactive (Thermo Scientific) mass analyzer running in positive mode at 3.5 kV with an MS1 resolution of 70,000. Metabolites were identified using exact mass (MS1), retention time, and fragmentation patterns (MS2) at normalized collision energy (NCE) 35. Quantification was performed via area under the curve (AUC) integration of MS1 ion chromatograms with the MZmine 2 software package. For the quantification of absolute moles of phenformin, one tumor from the vehicle group was selected to provide a representative tumor small molecular matrix. […]
# Kras/Lkb1 tumors = conditions: cited from earlier work
Compound,sensitivity (cell viability) of lung ADC line vs SCC line (A549 and RH2 cells),Ki67 positive cells in TTF1+ ADCs (Kras/Lkb1 lung tumors [1]),response of CK5+ SCCs (Ki67) (Kras/Lkb1 lung tumors [1]),"tumor burden (percent of lung area occupied by tumor) (Kras/Lkb1 lung tumors [2]; 15 mg/kg/day oral gavage, 12 days, vs vehicle)",sensitivity of 18FBnTP POS tumors to complex I inhibition (Kras/Lkb1 lung tumors [2]; Kras/Lkb1 mice),sensitivity (cell viability) of lung ADC line vs SCC line [3],cellular OXPHOS (OCR) by respirometry (A549 cells [4]),ΔΨ measured by TMRE staining (A549 cells [5]),18FBnTP uptake in lung tumors post-treatment (Kras/Lkb1 lung tumors [6]; 125 mg/kg/day oral gavage),"18FBnTP uptake in lung tumors, three independent experiments (Kras/Lkb1 lung tumors [6]; 125 mg/kg/day)",change in 18FBnTP uptake post-treatment to pre-treatment (Kras/Lkb1 lung tumors [6]; 125 mg/kg/day),18FBnTP uptake (gamma counter) (A549 cells [7]),"cleaved caspase 3 and Ki67 staining (apoptosis, proliferation) (Kras/Lkb1 lung tumors [8])",phenformin in lung tumor tissue by mass spectrometry [9],"cellular apoptosis after longer treatment (Kras/Lkb1 tumors; 4-8 weeks treatment, Ref. 9,19)",sensitivity of Kras/Lkb1 tumors (Kras/Lkb1 tumors; Ref. 9),"response of lung SCC tumors from Kras/Lkb1 mice (Kras/Lkb1 tumors; Ref. 19,33)"
Cc1nc(-c2nc(-c3ccc(OC(F)(F)F)cc3)no2)nn1Cc1cccc(N2CCC(S(C)(=O)=O)CC2)c1 [IACS-010759],more sensitive,significant reduction in Ki67 positive cells,refractory,significant reduction in tumor burden,sensitive,,,,,,,,,,,,
[H]/N=C(/N)N/C(=N/[H])NCCc1ccccc1 [phenformin],more sensitive,,,,,more sensitive,significant reduction of cellular OXPHOS,significantly reduced ΔΨ in a dose dependent manner,significant reduction; also recorded: suppresses,significant reduction,significant drop in tracer uptake,significantly reduced,no evidence of phenformin induced apoptosis or reduced cell viability; also recorded: does not induced changes in proliferation or apoptosis,significant increase in phenformin in tumors,resulted in cellular apoptosis,sensitive,refractory
